Measurements published in ChEMBL document CHEMBL6120946, “From Hit to Lead: Discovery of First-In-Class Furanone Glycoside D228 Derived from Chimonanthus salicifolius for the Treatment of Inflammatory Bowel Disease” (J Med Chem, 2024).
Activity calls are given as the source filed them. The rule behind the calls is not given here.

Key:
[1] = Toxicity in male Kunming mouse assessed as effect on K inorganic salt level in serum at 100 to 500 mg/kg/day, po measured after 5 weeks; type: organism-based; details: in vivo, 840 h, dose 100-500 mg/kg/day
[2] = Toxicity in male Kunming mouse assessed as effect on spleen to body weight ratio at 100 to 500 mg/kg/day, po measured after 5 weeks; type: organism-based; details: in vivo, 840 h, dose 100-500 mg/kg/day
[3] = Toxicity in female Kunming mouse assessed as effect on lung at 100 to 500 mg/kg/day, po measured after 5 weeks by H and E staining based analysis; type: organism-based; details: in vivo, 840 h, dose 100-500 mg/kg/day
[4] = Toxicity in female Kunming mouse assessed as effect on kidney at 100 to 500 mg/kg/day, po measured after 5 weeks by H and E staining based analysis; type: organism-based; details: in vivo, 840 h, dose 100-500 mg/kg/day
[5] = Toxicity in male Kunming mouse assessed as effect on kidney to body weight ratio at 100 to 500 mg/kg/day, po measured after 5 weeks; type: organism-based; details: in vivo, 840 h, dose 100-500 mg/kg/day
Mus musculus [6] = test: Antiinflammatory activity in DSS-induced male C57BL/6 mouse model assessed as inhibition of IL-17A level in colon at 50 to 100 microM/Kg; type: functional, organism-based; details: dose 50-100 µM/Kg
[7] = Toxicity in male Kunming mouse assessed as effect on heart to body weight ratio at 100 to 500 mg/kg/day, po measured after 5 weeks; type: organism-based; details: in vivo, 840 h, dose 100-500 mg/kg/day
[8] = Toxicity in female Kunming mouse assessed as change in food intake at 100 to 500 mg/kg/day, po measured after 5 weeks; type: organism-based; details: in vivo, 840 h, dose 100-500 mg/kg/day
[9] = Toxicity in female Kunming mouse assessed as effect on K inorganic salt level in serum at 100 to 500 mg/kg/day, po measured after 5 weeks; type: organism-based; details: in vivo, 840 h, dose 100-500 mg/kg/day
[10] = Acute toxicity in female Kunming mouse assessed as effect on spleen 5 g/Kg, po measured after 5 weeks; type: organism-based; details: in vivo, 5000 mg/kg, 840 h
[11] = Toxicity in male Kunming mouse assessed as effect on TG level in serum at 100 to 500 mg/kg/day, po measured after 5 weeks; type: organism-based; details: in vivo, 840 h, dose 100-500 mg/kg/day
Mus musculus [12] = test: Antiinflammatory activity in DSS-induced male C57BL/6 mouse model assessed as effect on JNK phosphorylation level at 50 to 100 microM/Kg by Western blot analysis; type: functional, organism-based; details: dose 50-100 µM/Kg
[13] = Toxicity in female Kunming mouse assessed as effect on TG level in serum at 100 to 500 mg/kg/day, po measured after 5 weeks; type: organism-based; details: in vivo, 840 h, dose 100-500 mg/kg/day
[14] = Toxicity in female Kunming mouse assessed as effect on body weight loss at 100 to 500 mg/kg/day, po measured after 5 weeks; type: organism-based; details: in vivo, 840 h, dose 100-500 mg/kg/day
[15] = Toxicity in female Kunming mouse assessed as effect on Na inorganic salt level in serum at 100 to 500 mg/kg/day, po measured after 5 weeks; type: organism-based; details: in vivo, 840 h, dose 100-500 mg/kg/day
[16] = Acute toxicity in male Kunming mouse assessed as effect on liver 5 g/Kg, po measured after 5 weeks; type: organism-based; details: in vivo, 5000 mg/kg, 840 h
[17] = Toxicity in male Kunming mouse assessed as effect on ALP level in serum at 100 to 500 mg/kg/day, po measured after 5 weeks; type: organism-based; details: in vivo, 840 h, dose 100-500 mg/kg/day
[18] = Toxicity in female Kunming mouse assessed as effect on BUN level in serum at 100 to 500 mg/kg/day, po measured after 5 weeks; type: organism-based; details: in vivo, 840 h, dose 100-500 mg/kg/day
[19] = Drug metabolism in mouse liver microsomes assessed as phoenicein formation measured after 5 mins in presence of NADPH by LC/MS/MS analysis; type: ADME, Microsome
[20] = Toxicity in female Kunming mouse assessed as effect on ALP level in serum at 100 to 500 mg/kg/day, po measured after 5 weeks; type: organism-based; details: in vivo, 840 h, dose 100-500 mg/kg/day
Mus musculus [21] = test: Antiinflammatory activity in DSS-induced male C57BL/6 mouse model of inflammatory bowel disease assessed as downregulation of MyD88 expression at 50 to 100 microM/Kg by Western blot analysis; type: functional, organism-based; details: dose 50-100 µM/Kg
Mus musculus [22] = test: Antiinflammatory activity in DSS-induced male C57BL/6 mouse model of inflammatory bowel disease assessed as amelioration of crypts disruption at 50 to 100 microM/Kg by H and E staining based analysis; type: functional, organism-based; details: dose 50-100 µM/Kg
[23] = Toxicity in female Kunming mouse assessed as effect on heart at 100 to 500 mg/kg/day, po measured after 5 weeks by H and E staining based analysis; type: organism-based; details: in vivo, 840 h, dose 100-500 mg/kg/day
Mus musculus [24] = test: Antiinflammatory activity in male C57BL/6 mouse model of inflammatory bowel disease assessed as recovery of DSS-induced body weight loss at 40 mg/kg/day, po via gavage measured after 14 days relative to control; type: functional; details: time 14 day
Mus musculus [25] = test: Antiinflammatory activity in DSS-induced male C57BL/6 mouse model of inflammatory bowel disease assessed as increase in colon length at 15 mg/kg/day, po via gavage measured upto 14 days relative to control; type: functional; details: time <= 14 day
Mus musculus [26] = test: Antiinflammatory activity in DSS-induced male C57BL/6 mouse model of inflammatory bowel disease assessed as increase in colon length at 20 mg/kg/day, ip measured after 14 days relative to control; type: functional; details: time 14 day
Mus musculus [27] = test: Antiinflammatory activity in DSS-induced male C57BL/6 mouse model of inflammatory bowel disease assessed as upregulation of ZO-1 expression in colon at 50 to 200 microM/Kg by immunohistochemical analysis; type: functional, organism-based; details: dose 50-200 µM/Kg
Mus musculus [28] = test: Antiinflammatory activity in DSS-induced male C57BL/6 mouse model of inflammatory bowel disease assessed as amelioration of crypts disruption at 50 to 200 microM/Kg by H and E staining based analysis; type: functional, organism-based; details: dose 50-200 µM/Kg
Mus musculus [29] = test: Antiinflammatory activity in DSS-induced male C57BL/6 mouse model of inflammatory bowel disease assessed as reduction of severe diarrhea at 15 to 60 mg/kg/day, po via gavage measured upto 14 days; type: functional, organism-based; details: dose 15-60 mg/kg/day, time <= 14.0 day
Mus musculus [30] = test: Antiinflammatory activity in DSS-induced male C57BL/6 mouse model of inflammatory bowel disease assessed as downregulation of TRAF6 expression at 50 to 200 microM/Kg by Western blot analysis; type: functional, organism-based; details: dose 50-200 µM/Kg
Mus musculus [31] = test: Antiinflammatory activity in DSS-induced male C57BL/6 mouse model of inflammatory bowel disease assessed as recovery from body weight loss at 40 mg/kg/day, ip measured after 14 days relative to control; type: functional; details: time 14 day
Mus musculus [32] = species on record: Mus musculus; test: Antiinflammatory activity in DSS-induced male C57BL/6 mouse model of inflammatory bowel disease assessed as reduction in TLR7 level; type: functional, organism-based
Mus musculus [33] = species on record: Mus musculus; test: Antiinflammatory activity in DSS-induced male C57BL/6 mouse model of inflammatory bowel disease assessed as reduction in TLR4 level; type: functional, organism-based
Mus musculus [34] = test: Antiinflammatory activity in DSS-induced male C57BL/6 mouse model assessed as effect on JNK phosphorylation level at 50 to 200 microM/Kg by Western blot analysis; type: functional, organism-based; details: dose 50-200 µM/Kg
Mus musculus [35] = test: Antiinflammatory activity in DSS-induced male C57BL/6 mouse model of inflammatory bowel disease assessed as increase in colon length at 60 mg/kg/day, po via gavage measured upto 14 days relative to control; type: functional; details: time <= 14 day
Mus musculus [36] = test: Antiinflammatory activity in DSS-induced male C57BL/6 mouse model of inflammatory bowel disease assessed as increase in colon length at 30 mg/kg/day, po via gavage measured upto 14 days relative to control; type: functional; details: time <= 14 day
Mus musculus [37] = test: Antiinflammatory activity in DSS-induced male C57BL/6 mouse model of inflammatory bowel disease assessed as recovery from body weight loss at 20 mg/kg/day, ip measured after 14 days relative to control; type: functional; details: time 14 day

CC(=O)OC[C@H]1O[C@@H](OC2=C(C)OC(=C(C)C)C2=O)[C@H](OC(C)=O)[C@@H](OC(C)=O)[C@@H]1OC(C)=O
Activity [1]: Non-toxic | Activity [2]: Non-toxic | Activity [3]: Non-toxic | Activity [4]: Non-toxic | Activity [5]: Non-toxic | Activity (Mus musculus [6]): Active | Activity [7]: Non-toxic | Activity [8]: Non-toxic | Activity [9]: Non-toxic | Activity [10]: Non-toxic | Activity [11]: Non-toxic | Activity (Mus musculus [12]): inactive | Activity [13]: Non-toxic | Activity [14]: Non-toxic | Activity [15]: Non-toxic | Activity [16]: Non-toxic | Activity [17]: Non-toxic | Activity [18]: Non-toxic | Drug metabolism [19]: metabolite_detected | Activity [20]: Non-toxic | Activity (Mus musculus [21]): Active | Activity (Mus musculus [22]): Active | Activity [23]: Non-toxic | Activity (Mus musculus [24]): 49.1%

CC(C)=C1OC(C)=C(O[C@@H]2O[C@H](CO)[C@@H](O)[C@H](O)[C@H]2O)C1=O
Activity (Mus musculus [25]): 79.1% | Activity (Mus musculus [26]): 47.4% | Activity (Mus musculus [27]): Active | Activity (Mus musculus [28]): Active | Activity (Mus musculus [29]): Active | Activity (Mus musculus [30]): Active | Activity (Mus musculus [31]): 56.2% | Activity (Mus musculus [32]): Active | Activity (Mus musculus [33]): Active | Activity (Mus musculus [34]): inactive | Activity (Mus musculus [35]): 73.4% | Activity (Mus musculus [36]): 65.6% | Activity (Mus musculus [37]): 50%
